The target in the assay is T1, TRAP1 enzyme (Homo sapiens, UniProt Q12931).
T1 sequence (Q12931 60-704): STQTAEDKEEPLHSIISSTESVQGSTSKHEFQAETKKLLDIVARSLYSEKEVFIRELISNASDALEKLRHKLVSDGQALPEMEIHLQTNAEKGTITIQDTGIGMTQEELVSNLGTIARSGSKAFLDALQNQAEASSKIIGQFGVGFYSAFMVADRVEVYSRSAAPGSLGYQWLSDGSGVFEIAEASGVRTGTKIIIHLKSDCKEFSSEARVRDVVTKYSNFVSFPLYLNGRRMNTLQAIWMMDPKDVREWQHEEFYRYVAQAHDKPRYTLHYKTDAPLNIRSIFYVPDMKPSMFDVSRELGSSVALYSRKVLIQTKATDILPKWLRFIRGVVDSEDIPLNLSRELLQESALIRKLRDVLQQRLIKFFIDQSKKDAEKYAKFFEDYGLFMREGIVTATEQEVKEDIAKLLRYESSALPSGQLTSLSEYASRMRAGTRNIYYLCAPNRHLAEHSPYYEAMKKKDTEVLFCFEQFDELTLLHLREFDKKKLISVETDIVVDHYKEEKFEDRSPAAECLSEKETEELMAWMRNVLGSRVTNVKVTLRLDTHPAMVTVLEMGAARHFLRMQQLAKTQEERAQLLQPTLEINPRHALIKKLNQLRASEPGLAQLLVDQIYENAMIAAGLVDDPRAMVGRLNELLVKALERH
Kind of assay: Malachite green phosphate assay of TRAP1 ATPase activity. In kind it is biochemical. Conditions: for EC50: TRAP1 ATPase activation, 150 nM Trap1, 20 μM ATP, geometric mean, read-out: Malachite Green Fluor DRC: GeoMean EC50; for Emax: read-out: Malachite Green Fluor DRC: Mean Emax. On the procedure: The Potency of test compounds to modulate the ATPase activity of TRAP1 enzyme was evaluated using malachite green phosphatase assay. The assay is based on quantification of the green complex formed between Malachite Green, molybdate and inorganic phosphate generated in the phosphatase reaction. Assays were performed using a Malachite Green assay kit. All the assays were carried out in a 96-well transparent plate. The buffer used was 50 mM HEPES (pH 7.5), 20 mM KCl, 4 mM MgCl2 and 0.05% BSA. 150 nM Trap1 enzyme was incubated with various concentrations of the test compound (0.78 μM-100 μM) at 37° C. for 30 mins. 20 μM ATP was added to each well (except blank wells) to start the reaction and the plate was then incubated at 37° C. for 180 mins. 10 μl of the reaction volume of each sample was then transferred to a white 384-well proxiplate in quadruplets. 2.5 μl of Malachite Green reagent was added to all the wells and the plate was equilibrated for 15 mins. The reaction was stopped by adding 12% H2SO4 and the plate was read for fluorescence at 620 nm (λex=573 nm). The amount of phosphate released was estimated from a phosphate standard curve generated at the same experimental conditions. Emax (Maximal percent activation) and EC50 (concentration of test compound for half maximal activation) were estimated by fitting the dose response data to a sigmoidal curve fitting equation using Graphpad Prism software V.7.0.

By EC50 is commonly meant the concentration that produces a half-maximal response. The term Emax denotes the greatest response seen or fitted, relative to the assay's reference.

Molecules are shown by their SMILES.

As for `O=C(Nc1ccc(F)c(S(=O)(=O)Nc2ccc(Cl)cc2)c1)c1cc(Cl)ncc1C(F)(F)F` [Compound 743], the EC50 lay in the range of 20 to 100 µM and the Emax is 200 to 300%.

Turning to `O=C(Nc1ccc(F)c(S(=O)(=O)Nc2ccc(Br)cc2)c1)c1cnc(-c2ccccc2)[nH]1` [Compound 168], the EC50 is 10 to 20 µM and the Emax was 200 to 300%.

Regarding `CCc1ccc(NC(=O)c2cnc(C(F)(F)F)[nH]2)cc1S(=O)(=O)Nc1ccc(C)cc1` [Compound 270], the EC50 fell in the range of 10 to 20 µM and the Emax was 200 to 300%.

In the case of `O=C(Nc1ccc(F)c(S(=O)(=O)Nc2ccc(F)cc2)c1)c1cnc(C(F)(F)F)[nH]1` [Compound 220], the EC50 was 10 to 20 µM and the Emax lay in the range of 160 to 199%.

For `COc1ccc(NC(=O)c2cnc[nH]2)cc1S(=O)(=O)N(CCOCCOCCBr)c1ccc(Br)cc1` [Compound 286], the EC50 was below 10 µM and the Emax fell in the range of 160 to 199%.

As for `COc1ccc(NC(=O)c2cc3sccc3s2)cc1S(=O)(=O)Nc1c(C)cccc1C` [Compound 1051], the EC50 was below 10 µM and the Emax is 160 to 199%.

On to `COc1ccc(NC(=S)c2ncc(-c3ccccc3)o2)cc1S(=O)(=O)Nc1ccc(Cl)cc1` [Compound 583, N-(3-(N-(4-chlorophenyl)sulfamoyl)-4-methoxyphenyl)-5-phenyloxazole-2-carbothioamide], for which the EC50 was 10 to 20 µM and the Emax fell in the range of 160 to 199%.

Consider `COc1ccc(NC(=O)c2ccccc2C(F)(F)F)cc1S(=O)(=O)N1CCCCC1` [Compound 41], for which the EC50 was 10 to 20 µM and the Emax is 160 to 199%.

Take `COc1ccc(NC(=O)c2cnc(C(F)(F)F)[nH]2)cc1S(=O)(=O)N1Cc2cccc(F)c2C1` [Compound 225]: the EC50 is 10 to 20 µM and the Emax was in the range of 160 to 199%.

For the compound `CC(=O)c1c(C)[nH]c(C(=O)Nc2cccc(S(=O)(=O)N3CCCC3)c2)c1C` [Compound 148], the EC50 fell in the range of 10 to 20 µM and the Emax lay in the range of 200 to 300%.

`COc1ccc(NC(=O)c2ncc(-c3ccccc3)o2)cc1S(=O)(=O)Nc1c(Cl)cccc1Cl` [Compound 451]: the half-maximal effective concentration (EC50) is below 10 µM and the Emax was in the range of 123 to 159%.

On to `COc1ccc(NC(=O)c2cnc[nH]2)cc1S(=O)(=O)Nc1ccc(C(C2N=N2)C(F)(F)F)cc1` (stereo not shown) [Compound 398], for which the EC50 was in the range of 20 to 100 µM and the Emax fell in the range of 123 to 159%.

Take `COc1ccc(NC(=O)c2cnc(-c3ccccc3)[nH]2)cc1S(=O)(=O)Nc1ccc(Cl)cc1` [Compound 404]: the EC50 is below 10 µM and the Emax was in the range of 160 to 199%.

With `COc1ccc(NC(=O)c2ncc(-c3ccccc3)o2)cc1S(=O)(=O)Nc1c(C)cccc1C` [Compound 423], the EC50 is below 10 µM and the Emax was in the range of 160 to 199%.

`CC1(C)CCN(S(=O)(=O)c2cccc(NC(=O)c3cnc(-c4ccccc4)[nH]3)c2)c2ccc(Cl)cc21` [Compound 534]: the EC50 was 20 to 100 µM and the Emax is 200 to 300%.

With `COc1ccc(NC(=O)c2cnc(C(F)(F)F)[nH]2)cc1S(=O)(=O)Nc1ccc(-c2ccccc2)cc1` [Compound 353], the EC50 was 20 to 100 µM and the Emax was 200 to 300%.

Regarding `COc1ccc(NC(=O)c2cnc[nH]2)cc1S(=O)(=O)N(CCOCCOCC[P+](c1ccccc1)(c1ccccc1)c1ccccc1)c1ccc(Br)cc1` [Compound 296], the 50% effective concentration (EC50) is below 10 µM and the Emax was 200 to 300%.

With `COc1ccc(NC(=O)c2cnc(C(F)(F)F)[nH]2)cc1S(=O)(=O)N(CCCCN1CCCC1)c1ccc(Br)cc1` [Compound 437], the EC50 is 20 to 100 µM and the Emax lay in the range of 160 to 199%.

As for `O=C(Nc1cccc(S(=O)(=O)N2CCOc3ccccc32)c1)c1ncco1` [Compound 372], the EC50 was in the range of 20 to 100 µM and the Emax was 160 to 199%.

As for `COc1ccc(NC(=O)c2ncco2)cc1S(=O)(=O)N(CCCCCC(=O)O)c1ccc(Br)cc1` [Compound 250], the EC50 was in the range of 10 to 20 µM and the maximal response (Emax) is 200 to 300%.

Turning to `Cc1ncoc1C(=O)Nc1cccc(S(=O)(=O)N(c2ccc(Cl)cc2)C(C)C)c1` [Compound 551], the EC50 was 10 to 20 µM and the Emax lay within 160 to 199%.

Take `COc1ccc(NC(=O)c2cnc(-c3ccccc3)[nH]2)cc1S(=O)(=O)N(CCCCCC[P+](c1ccccc1)(c1ccccc1)c1ccccc1)c1ccc(Br)cc1` [Compound 242]: the EC50 is below 10 µM and the Emax was in the range of 200 to 300%.

Take `COc1ccc(NC(=O)c2nccs2)cc1S(=O)(=O)Nc1ccc(F)cc1` [Compound 345]: the EC50 fell in the range of 20 to 100 µM and the Emax is 200 to 300%.

For the compound `COc1ccc(NC(=O)c2cnc(C(F)(F)F)[nH]2)cc1S(=O)(=O)Nc1ccccc1` [Compound 223], the EC50 was in the range of 10 to 20 µM and the Emax is 160 to 199%.

`COc1ccc(NC(=O)c2cnc(-c3ccccc3)o2)cc1S(=O)(=O)Nc1ccc(C(F)(F)F)cc1` [Compound 650]: the EC50 is 20 to 100 µM and the Emax fell in the range of 200 to 300%.

As for `COc1ccc(NC(=O)c2ccc3cnccc3n2)cc1S(=O)(=O)Nc1c(C)cccc1C` [Compound 1047], the EC50 lay in the range of 10 to 20 µM and the Emax was 160 to 199%.

For `COc1ccc(NC(=O)c2ncco2)cc1S(=O)(=O)N(CCCCCCO)c1ccc(Br)cc1` [Compound 255], the EC50 is 10 to 20 µM and the Emax is 160 to 199%.

On to `COc1ccc(NC(=O)c2cn(C)c(C(F)(F)F)n2)cc1S(=O)(=O)Nc1ccc(Br)cc1` [Compound 364], for which the EC50 lay within 20 to 100 µM and the Emax fell in the range of 160 to 199%.

In the case of `Cc1cccc(C)c1NS(=O)(=O)c1cc(NC(=O)c2cnc(-c3ccccc3)[nH]2)ccc1F` [Compound 436], the half-maximal effective concentration (EC50) is below 10 µM and the Emax lay in the range of 160 to 199%.

In the case of `CCOC(=O)/C=C/c1ccc(NC(=O)c2ncc(-c3ccccc3)o2)cc1S(=O)(=O)Nc1ccc(Cl)cc1` [Compound 634], the EC50 is below 10 µM and the Emax is 123 to 159%.

On to `O=C(Nc1ccc(F)c(S(=O)(=O)Nc2ccc(F)cc2)c1)c1ncco1` [Compound 314], for which the EC50 lay within 20 to 100 µM and the maximal response (Emax) was in the range of 123 to 159%.

For `O=C(Nc1ccc(F)c(S(=O)(=O)Nc2ccc(Br)cc2)c1)c1cnc(C(F)(F)F)[nH]1` [Compound 186], the EC50 lay within 20 to 100 µM and the Emax was in the range of 200 to 300%.

For `COc1ccc(NC(=O)c2cnc(C(F)(F)F)[nH]2)cc1S(=O)(=O)N(CCCCCN1CCOCC1)c1ccc(Br)cc1` [Compound 433], the EC50 fell in the range of 10 to 20 µM and the Emax is 123 to 159%.

`COc1ccc(NC(=O)c2cnccc2C)cc1S(=O)(=O)Nc1c(C)cccc1C` [Compound 471]: the EC50 was in the range of 20 to 100 µM and the Emax lay in the range of 160 to 199%.

For `CCc1ccc(NC(=O)c2cnc(C(F)(F)F)[nH]2)cc1S(=O)(=O)Nc1ccc(Br)cc1` [Compound 216], the EC50 was below 10 µM and the Emax is 200 to 300%.

On to `COc1ccc(NC(=O)c2cnc(-c3ccccc3)[nH]2)cc1S(=O)(=O)N(C)c1ccc(Br)cc1` [Compound 164], for which the EC50 lay in the range of 20 to 100 µM and the Emax fell in the range of 160 to 199%.

As to `COc1ccc(NC(=O)c2nc(-c3ccccc3)ccc2C)cc1S(=O)(=O)Nc1ccc(Cl)cc1` [Compound 565, N-(3-(N-(4-chlorophenyl)sulfamoyl)-4-methoxyphenyl)-3-methyl-6-phenylpicolinamide], the EC50 lay in the range of 20 to 100 µM and the Emax fell in the range of 123 to 159%.

In the case of `O=C(Nc1cccc(S(=O)(=O)Nc2ccc(Br)cc2)c1)c1cnc(C(F)(F)F)[nH]1` [Compound 228], the concentration for a half-maximal effect (EC50) lay within 10 to 20 µM and the Emax was in the range of 200 to 300%.

As for `COc1ccc(NC(=O)c2nc(C(F)(F)F)cs2)cc1S(=O)(=O)Nc1ccc(Br)cc1` [Compound 370, N-(3-(N-(4-bromophenyl)sulfamoyl)-4-methoxyphenyl)-4-(trifluoromethyl) thiazole-2-carboxamide], the EC50 lay within 20 to 100 µM and the Emax was 200 to 300%.

Take `COc1ccc(NC(=O)c2ncco2)cc1S(=O)(=O)N1CCOCC1` [Compound 309]: the EC50 fell in the range of 20 to 100 µM and the Emax is 123 to 159%.

On to `COc1ccc(NC(=O)c2cnc(-c3ccccc3)[nH]2)cc1S(=O)(=O)Nc1ccc(F)cc1` [Compound 171], for which the EC50 was below 10 µM and the maximum response (Emax) fell in the range of 200 to 300%.

Source of the values: patent publication US20230174523A1, “BENZENESULFONAMIDE DERIVATIVES AS TRAP1 MODULATORS AND USES THEREOF” (Amathus Therapeutics, Inc., priority 2020, published 2023).
